Reference: patent EP3045469A1, “POLYMYXIN DERIVATIVE AND USES THEREOF” (priority 2015, dated 2016)
“And” between values parts separate entries of the source, which are not always exact repeats. Equal entries are not always repeated. “Also recorded” adds a separate entry of the source. Where two headings read alike, the source gives them in different places. Where a SMILES comes first, the peptide text is derived from it. Bridges are numbered along the chain shown (N, C = ends). [ ]: non-standard residue; d: D form. The star is where a group is joined. Octanoyl = CCCCCCCC(=O)*; Dab = NCC[C@H](N)C(=O)O; Abu = CC[C@H](N)C(=O)O

Experiments:
E. coli JMI 109 = assay: MIC assay (CLSI broth microdilution; checkerboard with rifampin); type: cell-based, Escherichia coli; settings: polymyxin-nonsusceptible strain
Description: (§1) Synergy studies were performed by using polymyxin derivatives in combination with rifampin, a model compound for such antibacterial agents that the intact outer membrane of Gram-negative bacteria acts as a permeability barrier.

[1] = Toxicokinetics (plasma and urine levels by LC-MS/MS) in cynomolgus monkeys; settings: for urinary recoveries (0-8 h urine collection) / urine concentrations (in 0-8 h urine collection): 36 mg/kg/d; for concentration in the urine: after infusion at 8 mg/kg, highest found either in the 0-4 h or 4-8 h sample, given for each animal; for concentration in the urine / 0-8 h recovery in urine: 8 mg/kg; for 0-8 h recovery in urine: after the infusion of 8 mg/kg, percentages given for each animal
Description: (§2) For seven days, the animals were dosed by intravenous (IV) infusion three times daily (TID) at a dose volume of 10 mL/kg for 1 hour (± 10 minutes), 8 ± 0.5 hours apart. The day of initial dose administration was designated study Day 1, with subsequent days consecutively numbered. Days prior to the initial dose administration were consecutively numbered with the final day of acclimation referenced as Day -1.
(§3) The following parameters were evaluated at designed intervals: clinical observations, body weights, clinical pathology (hematology, coagulation, serum chemistry, urinalysis including urine sediments and urine chemistry), toxi-cokinetics (plasma and urine) and anatomic pathology (kidney). In cases of animals sacrificed on an unscheduled basis, samples were taken on the day of the sacrifice.
Plasma and urine concentrations for toxicokinetic (TK) studies were determined by using liquid chromatograph interfaced with a mass spectrometer after precipitation of proteins. A sample (100 µL) was mixed with internal standard solution in water:formic acid (99:1 v/v; […]). Then, 600µL of 100:1 acetonitrile:formic acid was added. The plates were centrifuged at 3200 rpm for 5 minutes. Using a Tomtec Quadra96, a 450 µL aliquot was transferred to a new 96-well plate and dried under nitrogen at 40°C. Then, 200 µL of water:methanol:formic acid (85:15:1 1 v/v) was added and the plate sealed for LC-MS/MS injection. LC-MS system consisted of Waters Acquity liquid chromatograph interfaced with a Thermo Scientific TSQ Quantitative triple quadrupole MS with ionization in the positive ion mode. Each sample (20 µL) was injected onto a Waters Acquity BEH Shield RP18 column (2.1 x 50 mm; 1.7 µm) equilibrated at 50°C. Mobile Phase A was 85:15:1 v/v water:methanol:formic acid. Mobile Phase B was 50:50:1 v/v acetonitrile:methanol:formic acid.
Peak area ratios from the calibration standard responses were regressed using a (1/concentration^2) linear fit for polymyxin B using colistin as the internal standard. For NAB739 and NAB815, peak areas from the calibration standard responses were regressed using a (1/concentration^2) quadratic fit (without the use of an internal standard).
Toxicokinetic analysis was performed by using WinNonlin Phoenix version 6.3 software (Pharsight, Cary, NC). For plasma TK, noncompartmental IV infusion model was used.
The data is from the cynomolgus monkey studies described in the Example 3, where the peptides were administered as a 1-hour intravenous infusion thrice a day. The plasma and urine levels of the peptides were determined as in Example 3.

[2] = 7-day intravenous toxicity (nephrotoxicity) study in cynomolgus monkeys; settings: for kidney injury markers (S-BUN, S-Crea, U-NAG/Crea, U-GGT/Crea) / animals euthanized due to severe nephrotoxic effects: IV infusion TID, seven days; for animals euthanized due to severe nephrotoxic effects: 3 animals per group
Description: In vivo toxicity and toxicokinetic studies were performed by using cynomolgus monkeys. The laboratory that performed the animal studies is accredited by the Association for Assessment and Accreditation of Laboratory Animal Care (AAALAC), has an Animal Welfare Assurance issued by the Office of Laboratory Animal Welfare (OLAW), is registered with the United States Department of Agriculture (USDA), and has an Institutional Animal Care and Use Committee (IACUC) responsible for compliance with applicable laws and regulations concerning the humane care and use of laboratory animals.
Naive female cynomolgus monkeys were acclimatized to study room for 28 days during which each animal was implanted with a permanent indwelling femoral catheter to permit continuous intravenous infusions. The animals were allowed surgical recovery period of at least 2 weeks before initiating dosing.
Polymyxin B sulfate was from Sigma-Aldrich (catalogue number P0972, lot number BCBF8382V). On each day of use, appropriate quantities of NAB739, NAB815 or polymyxin B were weighed and dissolved in appropriate volumes of sterile saline to prepare a stock solution for each test article and positive control. A correction factor was used in the stock solution preparation to account for both the purity and sulfate content in each test article. Accordingly, the dose (such as 36 mg/kg/d) refers to the dose of the pure peptide as its free base form, not as its sulfate salt.
The doses were the following: polymyxin B 18 mg/kg/d (Group 1), polymyxin B 24 mg/kg/d (Group 2), NAB739 24 mg/kg/d (Group 3), NAB739 36 mg/kg/d (Group 4), NAB815 24 mg/kg/d (Group 5), NAB815 36 mg/kg/d (Group 6). Three animals were included in each study groups.
as §2, §3
On the day of necropsy, animals were sedated with ketamine, weighed, and anesthetized with an intravenous injection of a commercial pentobarbital and phenytoin solution, followed by exsanguinations.
At necropsy, gross observations and organ weights were recorded, and specific tissues were collected. Histopathology was conducted on sections of kidney stained with hematoxylin and eosin (H&E).
The figures also show Urine N-acetyl-β-D-glucosaminidase/urine creatinine ratio (U-NAG/Crea; Fig. 3) and Urine Gamma Glutamyltransferase/urine creatinine ratio (U-GGT/Crea; Fig. 4), both urine biomarkers for kidney injury, in those animals. S-Crea and U-Crea were measured by using an Olympus Analyzer (OA) and the modified Jaffe method, S-BUN by using OA and urease/L-glutamate dehydrogenase. U-NAG was measured by using OA/enzymatic, and U-GGT by using OA and glutamyl-carboxy-p-nitroanilide IFCC.
The presence of the following nephropathological parameters was recorded in each animal: tubular basophilia (regeneration), tubular degeneration/necrosis, infiltration (by mononuclear and/or mixed inflammatory cells), tubular dilatation, and tubular casts.

K. pneumoniae JMI 27068 = assay: MIC assay (CLSI broth microdilution; checkerboard with rifampin); type: cell-based, Klebsiella pneumoniae; settings: polymyxin-nonsusceptible strain
Description: as §1

A. baumannii CMI 417 = assay: as above; type: cell-based, Acinetobacter baumannii; settings: polymyxin-nonsusceptible strain
Description: as §1

E. coli JMI 3328 = test system: E. coli JMI 3328
Description: as §1

K. pneumoniae JMI 27072 = test system: K. pneumoniae JMI 27072
Description: as §1

P. aeruginosa ATCC 27853 = test system: P. aeruginosa ATCC 27853
Description: as §1

E. coli ATCC 25922 = test system: E. coli ATCC 25922
Description: as §1

K. pneumoniae ATCC 43816 = test system: K. pneumoniae ATCC 43816
Description: as §1

A. baumannii ATCC 19606 = test system: A. baumannii ATCC 19606
Description: as §1

P. aeruginosa JMI 7445 = test system: P. aeruginosa JMI 7445
Description: as §1

A. baumannii JMI 48125 = test system: A. baumannii JMI 48125
Description: as §1

[3] = alone, Müller-Hinton II broth, 35°C, 20 hours
[4] = in combination with rifampin (0.25 µg/mL), duplicate checkerboard assays

Row | Structure (SMILES) | MIC (E. coli JMI 109; [3]) | MIC (E. coli JMI 109; [4]) | urinary recoveries (0-8 h urine collection) ([1]; day 1, per animal) | urine concentrations (in 0-8 h urine collection) ([1]; day 1, per animal) | urinary recoveries (0-8 h urine collection) ([1]; day 7, per animal) | urine concentrations (in 0-8 h urine collection) ([1]; day 7, per animal) | concentration in the urine [1] | 0-8 h recovery in urine [1] | kidney injury markers (S-BUN, S-Crea, U-NAG/Crea, U-GGT/Crea) ([2]; 24 mg/kg/d) | animals euthanized due to severe nephrotoxic effects ([2]; 36 mg/kg/d) | MIC (K. pneumoniae JMI 27068; [3]) | MIC (K. pneumoniae JMI 27068; [4]) | MIC (A. baumannii CMI 417; [3]) | MIC (A. baumannii CMI 417; [4]) | MIC (E. coli JMI 3328; [3]) | MIC (K. pneumoniae JMI 27072; [3]) | MIC (K. pneumoniae JMI 27072; [4]) | MIC (P. aeruginosa ATCC 27853; [4]) | MIC (E. coli ATCC 25922; [3]) | MIC (K. pneumoniae ATCC 43816; [3]) | other results
1 | CCCCCCCC(=O)N[C@H](C(=O)N[C@H](CO)C(=O)N[C@H]1CCNC(=O)[C@H]([C@@H](C)O)NC(=O)[C@H](CCN)NC(=O)[C@H](CCN)NC(=O)[C@H](CC(C)C)NC(=O)[C@@H](Cc2ccccc2)NC(=O)[C@H](CCN)NC1=O)[C@@H](C)O [NAB739, octanoyl -Thr - DSer-[cyclo-α,γDab - αDab - DPhe- Leu - αDab -αDab - Thr]] (Octanoyl-T[dS][Dab][Dab][dF]L[Dab][Dab]T; lactam 3-C) | 32 µg/mL | 1 µg/mL | 20.4% and 26.4% | 92 µg/mL and 33 µg/mL and 82 µg/mL | 30.6% and 55.8% | 268 µg/mL and 348 µg/mL | 80 µg/mL and 140 µg/mL and 155 µg/mL | up to 20 % of the dose and ≤ 91 % of the dose and ≤ 92 % of the dose | one animal receiving NAB739 displayed marked increase in S-Crea | One animal | 128 µg/mL | 2 µg/mL | 128 µg/mL | 2 µg/mL | 2 µg/mL | 2 to 4 µg/mL | 1 µg/mL | 4 to 8 µg/mL | 2 µg/mL | 4 µg/mL | MIC (E. coli JMI 3328): 1 µg/mL; MIC (E. coli ATCC 25922): 1 µg/mL; MIC (K. pneumoniae ATCC 43816): 1 to 2 µg/mL; MIC (A. baumannii ATCC 19606; [3]): 4 µg/mL; MIC (A. baumannii ATCC 19606; [4]): 0.5 µg/mL; MIC (P. aeruginosa JMI 7445; [3]): 4 µg/mL; MIC (P. aeruginosa JMI 7445; [4]): 4 µg/mL; MIC (A. baumannii JMI 48125; [3]): 2 to 4 µg/mL; MIC (A. baumannii JMI 48125; [4]): 0.5 µg/mL
2 | CCCCCCCC(=O)N[C@@H](CCN)C(=O)N[C@H](C(=O)N[C@@H](C(=O)N[C@H]1CCNC(=O)[C@H]([C@@H](C)O)NC(=O)[C@H](CCN)NC(=O)[C@H](CC)NC(=O)[C@H](CC(C)C)NC(=O)[C@@H](Cc2ccccc2)NC(=O)[C@H](CCN)NC1=O)[C@H](C)O)[C@@H](C)O [NAB815, octanoyl - αDab -Thr - DThr-[cyclo-α,yDab - αDab - DPhe- Leu -Abu -αDab - Thr]] (Octanoyl-[Dab]T[dT][Dab][Dab][dF]L[Abu][Dab]T; lactam 4-C) | 128 µg/mL | 1 µg/mL | 14.3% and 20.9% and 36.3% | 173 µg/mL and 265 µg/mL and 114 µg/mL | 40.5% and 41.9% | 17 µg/mL and 62 µg/mL and 149 µg/mL | 175 µg/mL and 225 µg/mL and 260 µg/mL | up to 38 % of the dose and ≤ 55 % of the dose and ≤ 88 % of the dose | None of the parameters was elevated | underwent no prescheduled necropsy | 128 µg/mL | 4 µg/mL | 256 µg/mL | 2 µg/mL | 4 µg/mL | 2 to 4 µg/mL | 1 to 2 µg/mL | >8 µg/mL | 2 µg/mL | 2 to 4 µg/mL | kidney injury markers (S-BUN, S-Crea, U-NAG/Crea, U-GGT/Crea) ([2]; 36 mg/kg/d): only minor if any elevations in the four parameters; kidney histopathology findings (nephropathological parameters) ([2]; 36 mg/kg/d, H&E kidney sections, five parameters graded 0 no significant findings, 1 minimal, 2 mild, 3 moderate, 4 marked): moderate findings, both in one parameter only; also recorded: no other than minimal or mild findings; MIC (E. coli JMI 3328; [4]): 1 µg/mL; MIC (P. aeruginosa ATCC 27853; [3]): 16 µg/mL; MIC (E. coli ATCC 25922; [4]): 1 µg/mL; MIC (K. pneumoniae ATCC 43816; [4]): 1 µg/mL; MIC (A. baumannii ATCC 19606; [3]): 4 µg/mL; MIC (A. baumannii ATCC 19606; [4]): 0.5 to 2 µg/mL; MIC (P. aeruginosa JMI 7445; [3]): 8 µg/mL; MIC (P. aeruginosa JMI 7445; [4]): 4 µg/mL; MIC (A. baumannii JMI 48125; [3]): 2 µg/mL; MIC (A. baumannii JMI 48125; [4]): 0.5 to 2 µg/mL
